Read-outs that look alike come from different tables or passages of the source.
Molecular target: ALK5 (Homo sapiens (Human), UniProt P36897)
Assay: Evaluation experiment of ALK5 enzyme activity inhibition IC50 (ADP-Glo kinase assay)
Type: biochemical
Description: 1. Preparation of a 1× kinase buffer: 40 mM Tris (pH 7.5), 20 mM MgCl2, 0.10% BSA, 1 mM DTT.
2. Compound preparation: The final detection concentration of the compound was 10 μM, which was prepared to a 100-fold concentration, i.e., 1 mM. 100 μL of the 100-fold compound was added in the second well of the 384-well plate, and 60 μL of 100% DMSO was added to the other wells. […] 50 nL of the compound was transferred to the reaction plate with echo.
3. Kinase reaction: The kinase was added to a 1× kinase buffer to form a 2× enzyme solution. […] The polypeptide TGFbR1 (purchased from Signal Chem, catalog number T36-58) and ATP were added to a 1× kinase buffer to form a 2× substrate solution. The final concentration of the substrate solution was peptide TGFbR1 0.1 mg/mL, ATP 7 μM. 2.5 μL of the 2× enzyme solution was added to the 384-well reaction plate (there was already 50 nL of 100% DMSO dissolved compound), and a 1× kinase buffer was added to a negative control well. The reaction solution was incubated at room temperature for 10 minutes. 2.5 μL of 2× substrate solution was added to the 384-well reaction plate. The 384-well plate was covered and incubated at 30° C. for 1 hour. ADP-Glo reagent (purchased from Promege, catalog number v9102) was equilibrated to room temperature. 5 μL of ADP-Glo reagent was transferred to the reaction well of the 384-well plate to stop the reaction.
4. Detection of reaction results: 10 μL of kinase detection reagent was transferred to each well, shaken for 1 minute, and let stand at room temperature for 30 minutes. The sample luminescence value was read at Synegy.
5. Curve fitting: The data of the luminescence reading were copied from the Synegy program. The value of the luminescence reading was converted to inhibition percentage by a formula (inhibition percentage=(max−sample RLU)/(max−min)×100, where “min” was a fluorescence reading for a control sample without enzyme; “max” was a fluorescence reading for a sample with DMSO as a control). The data were imported into MS Excel and GraphPad Prism was used for curve fitting. IC50 value was calculated.

[1] = ALK5 25 nM, peptide TGFbR1 0.1 mg/mL, ATP 7 μM, 30° C. 1 hour, ADP-Glo luminescence

Chain of ALK5 (P36897 34-503): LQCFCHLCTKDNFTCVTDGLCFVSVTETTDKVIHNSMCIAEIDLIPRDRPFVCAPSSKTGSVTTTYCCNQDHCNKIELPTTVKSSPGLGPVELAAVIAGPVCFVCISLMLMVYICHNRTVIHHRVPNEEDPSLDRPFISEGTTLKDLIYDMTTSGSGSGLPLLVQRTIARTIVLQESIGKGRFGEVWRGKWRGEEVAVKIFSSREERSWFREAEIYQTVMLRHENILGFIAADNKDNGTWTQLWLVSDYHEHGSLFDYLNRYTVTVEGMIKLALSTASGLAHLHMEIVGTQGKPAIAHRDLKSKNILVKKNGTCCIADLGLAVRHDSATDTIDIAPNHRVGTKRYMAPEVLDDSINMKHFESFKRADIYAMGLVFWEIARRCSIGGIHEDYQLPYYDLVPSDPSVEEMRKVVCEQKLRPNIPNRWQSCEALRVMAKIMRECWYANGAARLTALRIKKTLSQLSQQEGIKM

Structure (SMILES)	IC50 [1] [nM]	IC50 [nM]
Cc1cccc(/C=C\c2ccc3ncc(C(=O)NC4CC4)n3c2)n1 [Compound 4]	17	
NC(=O)c1cnc2ccc(/C=C\c3cccc(C(F)(F)F)n3)cn12 [Compound 11]		10
Cc1cccc(/C=C\c2ccn3ncc(C(N)=O)c3c2)n1 [Compound 13]	5.1	
Cc1cccc(/C=C\c2ccc3ncc(C(N)=O)nc3c2)n1 [Compound 14]	78	
Cc1cccc(C2=C(c3ccc4ncc(C(N)=O)n4c3)CCCC2)n1 [Compound 16]	48	
Cc1cccc(/C=C(/C(=O)O)c2ccc3ncc(C(N)=O)n3c2)n1 [Compound 17]	616	
Cc1cccc(/C=C(/C(=O)OC(C)(C)C)c2ccc3ncc(C(N)=O)n3c2)n1 [Compound 17a]	6.6	
Cc1cccc(/C=C(/C(=O)N(C)C)c2ccc3ncc(C(N)=O)n3c2)n1 [Compound 20]	34	
